# From US20020115642A1, “Beta-lactam antibiotics” (priority 2000, published 2002)
# Like-named read-outs stand apart in the source and are kept apart here.
# Columns and labels:
# Staphylococcus aureus = test: Susceptibility testing (MIC, modified NCCLS method); type: cell-based
# Method: (§1) The NCCLS (National Committee for Clinical Laboratory Standards) method to determine MIC's of antimicrobial compounds was modified for high-throughput screening. All stocks of tested compounds were prepared in either water or in dimethylsulfoxide (DMSO), depending on the solubility. […] Briefly 20 2-fold serial dilutions of testing compounds from the highest concentration were made in a 384-well microtiter plate. Each well was inoculated with testing bacteria in broth to a final concentration of approximately 1-1.5×10^6 cells/ml. Bacterial growth was determined by the increase of optical density at 600 nm using a microplate reader (Tecan SpectraFluor Plus).
# S. epidermidis = test: as above; type: cell-based, Staphylococcus epidermidis; conditions: Staphylococcus epidermidis, S. epidermidis (5); read-out: GM* MIC (geometric mean)
# Method: as §1
# E. faecalis = test: as above; type: cell-based, Enterococcus faecalis
# Method: as §1
# K. pneumoniae = test: as above; type: cell-based, Klebsiella pneumoniae
# Method: as §1
# E. cloacae = test: as above; type: cell-based, Enterobacter cloacae
# Method: as §1
# E. coli N [1] = test: Inhibition of bacterial growth (IC50, OD600); type: cell-based
# Method: Compounds of the invention were tested for their ability to inhibit the growth of β-lactam sensitive and resistant bacteria by contacting samples of such cells with various dilutions of the compositions, incubating the cells at 37° C. in the presence of these compositions and then measuring the number of viable cells present in each sample.
# Two compounds of the invention were tested, Compound (9) and Compound (1l). Incubation of bacterial cells was performed for two time periods, 10 hours and 20 hours. Four E. coli strains were used for the test. These strains were all derived from the strain NovaBlue (NovaGen Inc., Madison, Wis.). E. coli N is a normal, β-lactam sensitive strain. E coli R(Tem1) is a β-lactam resistant strain with a β-lactamase gene on a plasmid. E. coli C(Tem4O-15) is a β-lactam resistant strain with a β-lactam inhibitor resistant β-lactamase gene, and E. coli C(Tem3 1-27) is β-lactam resistant strain with an alternative β-lactam inhibitor resistant β-lactamase gene.
# The various E. coli strains were each treated with dilutions of the compounds of the invention. […] The number of viable cells at each time point was determined by measuring the OD600 of each cell sample.
# After measuring the number of viable cells present, the IC50 for each sample was determined. […] In addition, both compounds were effective at inhibiting the growth of both antibiotic sensitive and resistant bacterial cells.
# E. aerogenes = test: Susceptibility testing (MIC, modified NCCLS method); type: cell-based, Enterobacter aerogenes
# Method: as §1
# E. coli/TEM-1 = test: as above; type: cell-based, Escherichia coli; conditions: E. coli/Tem-1
# Method: as §1
# E. coli N [2] = test: as above; type: cell-based, Escherichia coli; conditions: E. coli (N)
# Method: as §1
# P. aeruginosa = test: as above; type: cell-based, Pseudomonas aeruginosa
# Method: as §1
structure (smiles),measurement,setting,value
"Cc1onc(-c2ccccc2)c1C(=O)N[C@@H]1C(=O)N2[C@@H]1SC(C)(C)[C@@H]2C(=O)O [Oxacillin, reference compound]",MIC,"Staphylococcus aureus; Staphylococcus aureus, ATCC11632, ATCC 11632, methicillin-sensitive, β-lactamase Neg./Pos., read-out: MIC",0.25 µg/mL
same,MIC,"Staphylococcus aureus; Staphylococcus aureus, ATCC13301, ATCC 13301, methicillin-sensitive, β-lactamase Positive, read-out: MIC",0.25 µg/mL
same,MIC,"Staphylococcus aureus; Staphylococcus aureus, ATCC14154, ATCC 14154, methicillin-sensitive, β-lactamase Positive, read-out: MIC",0.5 µg/mL
same,MIC,"Staphylococcus aureus; Staphylococcus aureus, ATCC33591, ATCC 33591, methicillin-resistant, β-lactamase Positive, read-out: MIC",8 µg/mL
same,MIC,"Staphylococcus aureus; Staphylococcus aureus, ATCC33592, ATCC 33592, methicillin-sensitive, β-lactamase Positive, read-out: MIC",2 µg/mL
same,MIC,"Staphylococcus aureus; Staphylococcus aureus, ATCC33593, ATCC 33593, methicillin-resistant, β-lactamase Positive, read-out: MIC",8 µg/mL
same,MIC,"Staphylococcus aureus; Staphylococcus aureus, ATCC33594, ATCC 33594, methicillin-sensitive, β-lactamase Positive, read-out: MIC",0.25 µg/mL
same,MIC,"Staphylococcus aureus; Staphylococcus aureus, ATCC43300, ATCC 43300, methicillin-sensitive, β-lactamase Neg./Pos., read-out: MIC",2 µg/mL
same,MIC,"Staphylococcus aureus; Staphylococcus aureus, ATCC700260, ATCC 700260, methicillin-sensitive, β-lactamase Positive, read-out: MIC",0.5 µg/mL
same,MIC,"Staphylococcus aureus; Staphylococcus aureus, ATCC700698, ATCC 700698, methicillin-resistant, β-lactamase Negative, read-out: MIC",> 32 µg/mL
same,MIC,"Staphylococcus aureus; Staphylococcus aureus, ATCC700699, ATCC 700699, methicillin-resistant, β-lactamase Negative, read-out: MIC",> 32 µg/mL
same,MIC,"Staphylococcus aureus; Staphylococcus aureus, ATCC700787, ATCC 700787, methicillin-resistant, β-lactamase Positive, read-out: MIC",> 32 µg/mL
same,MIC,"Staphylococcus aureus; Staphylococcus aureus, ATCC700788, ATCC 700788, methicillin-resistant, β-lactamase Positive, read-out: MIC",> 32 µg/mL
same,MIC,"Staphylococcus aureus; Staphylococcus aureus, ATCC700789, ATCC 700789, methicillin-resistant, β-lactamase Positive, read-out: MIC",32 µg/mL
same,MIC,"Staphylococcus aureus; Staphylococcus aureus, MRSA, MRSA tested (7), read-out: Geometric mean of MIC",> 21.5 µg/mL
same,MIC,"Staphylococcus aureus; Staphylococcus aureus, MSSA, MSSA tested (7), read-out: Geometric mean of MIC",0.55 µg/mL
same,MIC,"Staphylococcus aureus; Staphylococcus aureus, S. aureus (14), read-out: Geometric mean of MIC",> 3.45 µg/mL
same,MIC,"Staphylococcus aureus; Staphylococcus aureus, S. aureus β-lactamase negative (2), read-out: Geometric mean of MIC",> 32 µg/mL
same,MIC,"Staphylococcus aureus; Staphylococcus aureus, S. aureus β-lactamase positive (12), read-out: Geometric mean of MIC",2.34 µg/mL
same,MIC,S. epidermidis,> 7.87 µg/mL
same,MIC range,E. faecalis; E. faecalis (7),>11 µg/mL
same,MIC,"E. faecalis; Enterococcus faecalis, E. faecalis (7), read-out: GM* MIC (geometric mean)",> 11 µg/mL
"CC1(C)S[C@@H]2[C@H](NC(=O)[C@H](N)c3ccccc3)C(=O)N2[C@H]1C(=O)O [Ampicillin, ampicillin, reference compound]",MIC,"K. pneumoniae; Klebsiella pneumoniae, K. pneumoniae (5), read-out: GM* MIC (geometric mean)",27200 µg/mL
same,MIC range,E. cloacae; E. cloacae (1),31 µg/mL
same,MIC,"E. cloacae; Enterobacter cloacae, E. cloacae (1), read-out: GM* MIC (geometric mean)",31 µg/mL
same,IC50,"E. coli N [1]; Escherichia coli, 10 h, read-out: IC50 10 hours, Cell N, 10 hours, 37° C.",9.71 µM
same,IC50,"E. coli N [1]; Escherichia coli, 20 h, read-out: IC50 20 hours, Cell N, 20 hours",7.47 µM
same,IC50,"E. coli N [1]; read-out: IC50 10 hours, Cell N, 10 hours, 37° C.",7.88 µM
same,MIC range,E. aerogenes; E. aerogenes (5),61 to 7813 µg/mL
same,MIC,"E. aerogenes; Klebsiella aerogenes, E. aerogenes (5), read-out: GM* MIC (geometric mean)",488 µg/mL
"O=C(Cc1cccs1)NC1C(=O)N2C(C(=O)O)=C(CC=COc3cc(Cl)ccc3Oc3ccc(Cl)cc3Cl)CSC12 (centres unmarked) [Compound 24, 3-(1-(2-(2,4-Dichlorophenoxy)-5-chlorophenoxy)-3-propenyl)-7-(2-thienylacetamido)-3-cephem-4-carboxylic acid]",MIC,E. coli/TEM-1,0.016 µg/mL
same,MIC,E. coli N [2],0.26 µg/mL
same,MIC,Staphylococcus aureus; S. aureus ATCC 11632,0.065 µg/mL
same,MIC,Staphylococcus aureus; S. aureus ATCC 33594,0.065 µg/mL
same,MIC,Staphylococcus aureus; S. aureus ATCC 700260,1e-05 µg/mL
same,MIC,Staphylococcus aureus; S. aureus ATCC 700699,0.032 µg/mL
same,MIC,K. pneumoniae; K. pneumoniae ATCC 51503,2.07 µg/mL
same,MIC,K. pneumoniae; K. pneumoniae ATCC 700721,2.07 µg/mL
same,MIC,E. cloacae; E. cloacae ATCC 23355,2.07 µg/mL
same,MIC,P. aeruginosa; P. aeruginosa ATCC 21726,>16.6 µg/mL
same,MIC,P. aeruginosa; P. aeruginosa ATCC 29872,>16.6 µg/mL
same,MIC,E. faecalis; E. faecalis ATCC 49757,4.14 µg/mL
same,MIC,E. faecalis; E. faecalis ATCC 700802,8.28 µg/mL
same,MIC,E. aerogenes; E. aerogenes ATCC 35028,4.14 µg/mL
